Assay results as given in patent publication US20240207258A1, “HETEROCYCLIC PDK1 INHIBITORS FOR USE TO TREAT CANCER” (Viracta Therapeutics, Inc., priority 2015, published 2024).

Key:
[1] = system: hematologic tumor cell lines; assay: MTS cell proliferation assay, panel of hematologic cancer cell lines; type: cell-based; details: range over 16 cell lines, FIG. 3; read-out: potency in the cell proliferation assay (EC50)
Description: (§1) Cell proliferation was measured using the CellTiter 96 Aqueous Non-Radioactive Cell Proliferation Assay (Promega). The CellTiter 96® AQueous Assay is composed of solutions of a tetrazolium compound [3-(4,5-dimethylthiazol-2-yl)-5-(3-carboxymethoxyphenyl)-2-(4-sulfophenyl)-2H-tetrazolium, inner salt; MTS] and an electron coupling reagent (phenazine methosulfate) PMS. MTS is bioreduced by cells into a formazan product that is soluble in tissue culture medium. The absorbance of the formazan product at 490 nm can be measured directly from assay plates without additional processing. The quantity of formazan product as measured by the amount of 490 nm absorbance is directly proportional to the number of living cells in culture. Cells were seeded into 96-well or 384-well clear plates in a volume of 200 μL (96-well) or 50 μL (384-well) at optimized densities ranging from 1,000 to 40,000 cells per well for 96-well plates or 1,200 to 25,000 cells per well for 384-well plates depending on cell-line. After 4-6 hr recovery, serially diluted compounds in DMSO were added to the cells using (0.1% v/v final DMSO concentration). Cells were then grown at 37° C. in a humidified incubator with 5% CO2 for 72 hr. A 20:1 [3-(4,5-dimethylthiazol-2-yl)-5-(3-carboxymethoxyphenyl)-2-(4-sulfophenyl)-2H-tetrazolium](MTS):phenazine methosulfate (PMS) solution in DPBS was made immediately before use, added to each well, and cells were incubated for 1.5 hr at 37° C. The absorbance at 490 nm was then measured using a platereader. Absorbance values were normalized as percent of control (cells incubated in the presence of 0.1% v/v DMSO). Sigmoidal dose-response curves were plotted using log(inhibitor) vs. response—Variable slope (four parameters) model with a top value constrained to 100% (GraphPad Prism version 6.00 for Windows, GraphPad Software, La Jolla California USA). […] Curves for compounds that reached a plateau were matched exactly to the measurement points. […] To determine potential of compounds of the invention to affect viability of hematological cancers, cell lines representing various tumor types were selected and tested. Human cell lines tested were: MOLM-13 (acute myeloid leukemia (AML)), MV4-11 (AML), U-2932 (ABC-diffuse large B cell lymphoma), U-937 (histiocytic lymphoma), U-266 (multiple myeloma), RPMI-8226 (multiple myeloma), CMK (megakaryoblastic cell line), SU-DHL-4 (GCB-diffuse large B cell lymphoma), KG1 (AML), Mec-1 (chronic B-cell leukemia), MOLM-16 (AML), Jeko (B-cell lymphoma), WSU-DLCL2 (B-cell lymphoma), JJN3 (plasma cell leukemia), SU-DHL-6 (GCB-diffuse large B cell lymphoma), and Z-138 (mantle cell lymphoma). In addition, two murine cell lines were tested: A20 […].

P-PDK1 [2] = assay: Pathway modulation in MV4-11 tumor xenografts, pPDK1; type: in vivo, mice; details: MV4-11 tumors, 50 mg/kg oral, 8 hrs
AKT phosphorylation = assay: Pathway modulation in MV4-11 tumor xenografts, pAKT; type: in vivo, mice; details: MV4-11 tumors, 50 mg/kg oral, 8 hrs
Description: (§2) MV4-11 cells propagated in vitro were implanted subcutaneous into the right flank of 9-week old female NCr nu/nu mice. On the day of implant, MV4-11 cells were harvested during log phase growth and resuspended in phosphate buffered saline (PBS) containing 50% Matrigel™ (BD Biosciences) at a concentration of 1×10^8 cells/mL. Xenografts were initiated by subcutaneously implanting 1×10^7 MV-4-11 cells (0.1 mL suspension) into the right flank of each test animal and tumors were monitored as their volumes approached the target range of 175 to 225 mm^3. Two weeks after implantation, animals were assigned to individual groups of 3 animals with and average tumor volume of approximately 200 mm^3. […] Eight hours post-dose, full blood volume was collected by cardiac puncture under isoflurane anesthesia and tumors were excised and snapfrozen in liquid nitrogen and stored at −80° C. until further analysis. Tumors were pulverized in liquid nitrogen using a Biopulverizer and split into two sample tubes: one for Western blot analysis and one for analysis of compound levels by LC-MS/MS. Western blot analysis was performed as described above. […] Standards and samples were analyzed on a PE Sciex API4000 instrument and compound concentration was quantified and back-calculated to ng compound per g tumor tissue and converted to M concentration assuming 1 g tumor tissue equals 1 mL volume.

[3] = Compound concentration in MV4-11 tumors by LC-MS/MS; type: in vivo, mice; details: 50 mg/kg oral
Description: as §2

Molm-13 = assay: MTS cell proliferation assay, Molm-13; type: cell-based; details: Homo sapiens; Molm-13, 72 hr
Description: as §1

MV4-11 = assay: MTS cell proliferation assay, MV4-11; type: cell-based, human
Description: (§3) Cell proliferation was measured using the CellTiter 96 Aqueous Non-Radioactive Cell Proliferation Assay (Promega). […] MTS is bioreduced by cells into a formazan product that is soluble in tissue culture medium. The absorbance of the formazan product at 490 nm can be measured directly from assay plates without additional processing. The quantity of formazan product as measured by the amount of 490 nm absorbance is directly proportional to the number of living cells in culture. Cells were seeded into 96-well or 384-well clear plates in a volume of 200 μL (96-well) or 50 μL (384-well) at optimized densities ranging from 1,000 to 40,000 cells per well for 96-well plates or 1,200 to 25,000 cells per well for 384-well plates depending on cell-line. After 4-6 hr recovery, serially diluted compounds in DMSO were added to the cells using (0.1% v/v final DMSO concentration). Cells were then grown at 37° C. in a humidified incubator with 5% CO2 for 72 hr. A 20:1 [3-(4,5-dimethylthiazol-2-yl)-5-(3-carboxymethoxyphenyl)-2-(4-sulfophenyl)-2H-tetrazolium](MTS):phenazine methosulfate (PMS) solution in DPBS was made immediately before use, added to each well, and cells were incubated for 1.5 hr at 37° C. The absorbance at 490 nm was then measured using a platereader. Absorbance values were normalized as percent of control (cells incubated in the presence of 0.1% v/v DMSO). Sigmoidal dose-response curves were plotted using log(inhibitor) vs. response—Variable slope (four parameters) model with a top value constrained to 100% (GraphPad Prism version 6.00 for Windows, GraphPad Software, La Jolla California USA). […] To determine potential of compounds of the invention to affect viability of hematological cancers, cell lines representing various tumor types were selected and tested. […] In addition, two murine cell lines were tested: A20 […].

U-2932 = assay: MTS cell proliferation assay, U-2932; type: cell-based; details: Homo sapiens, U2932; U-2932, 72 hr
Description: as §1

RPMI-8226 = assay: MTS cell proliferation assay, RPMI-8226; type: cell-based; details: Homo sapiens; RPMI-8226, 72 hr
Description: as §1

Jeko = assay: MTS cell proliferation assay, Jeko; type: cell-based; details: Homo sapiens, 72 hr
Description: as §1

A20 = assay: MTS cell proliferation assay, A20; type: cell-based, murine; details: Mus musculus; A20, 72 hr
Description: as §1

C1498 = assay: MTS cell proliferation assay, C1498; type: cell-based, murine
Description: as §3

P-PDK1 [4] = assay: Western blot, PDK1 phosphorylation in C1498 cells; type: cell-based, murine; details: C1498
Description: (§4) For phosphoprotein analyses, cells were seeded into 10 cm petri dishes (10×10^6 cells/dish) in media supplemented with 10% FBS and penicillin/streptomycin. After cells recovered for 1 hr at 37° C., compounds were added in DMSO (0.1% final) and incubated for 4 or 24 hr at 37° C. Cells were then harvested by centrifugation and washed with cold PBS. Cell pellets were resuspended in cell extraction buffer (Invitrogen) supplemented with 2×Halt™ protease and phosphatase inhibitor cocktail (Thermo Scientific), 2 mM sodium orthovanadate, 10 mM EDTA and 4 mM PMSF. Samples were lysed by sonication and incubated on ice for 30 min. Cell debris was removed by centrifugation and protein concentrations were determined using the BCA Protein Assay Kit (Pierce). The clarified lysate was diluted in LDS sample buffer with reducing agent (Life Technologies). […] Gels were run at 110 V and proteins were transferred to a PVDF membrane. Membranes were blocked in TBS blocking buffer (Li-Cor Biosciences) for 1 hr. Primary antibodies (Cell Signaling, Sant Cruz Biotechnology) were added (1:1,000 dilution) in blocking buffer with 0.1% Tween-20 and 1:20,000 dilution of β-actin antibody and incubated for 14 hr at 4° C. […] Bands were quantitated using ImageJ.

P-RSK2 = assay: Western blot, RSK2 phosphorylation in C1498 cells; type: cell-based, murine; details: C1498
Description: as §4

P-AKT = assay: Western blot, AKT phosphorylation in A20 cells; type: cell-based, murine
Description: For phosphoprotein analyses, cells were seeded into 10 cm petri dishes (10×10^6 cells/dish) in media supplemented with 10% FBS and penicillin/streptomycin. After cells recovered for 1 hr at 37° C., compounds were added in DMSO (0.1% final) and incubated for 4 or 24 hr at 37° C. Cells were then harvested by centrifugation and washed with cold PBS. Cell pellets were resuspended in cell extraction buffer (Invitrogen) supplemented with 2×Halt™ protease and phosphatase inhibitor cocktail (Thermo Scientific), 2 mM sodium orthovanadate, 10 mM EDTA and 4 mM PMSF. Samples were lysed by sonication and incubated on ice for 30 min. Cell debris was removed by centrifugation and protein concentrations were determined using the BCA Protein Assay Kit (Pierce). The clarified lysate was diluted in LDS sample buffer with reducing agent (Life Technologies). […] Gels were run at 110 V and proteins were transferred to a PVDF membrane. Membranes were blocked in TBS blocking buffer (Li-Cor Biosciences) for 1 hr. Primary antibodies (Cell Signaling, Sant Cruz Biotechnology) were added (1:1,000 dilution) in blocking buffer with 0.1% Tween-20 and 1:20,000 dilution of β-actin antibody and incubated for 14 hr at 4° C. Blots were washed in TBS-T. Label-conjugated goat anti-rabbit secondary antibody (IRdye® 800CW; Li-Cor Biosciences) was added in blocking buffer with 0.1% Tween-20 and 0.02% SDS and incubated for 1 hr. After washing in TBS-T followed by TBS, membranes were scanned on an Odyssey imaging system (Li-Cor Biosciences). Bands were quantitated using ImageJ.

EC50 [1] [nM]	tumor exposure [3] [mM]	EC50 (Molm-13) [nM]	EC50 (MV4-11; Homo sapiens, MV4-11, 72 hr, read-out: MTS proliferation assay) [nM]	EC50 (RPMI-8226) [nM]	Structure (SMILES)	inhibition of P-PDK1 (P-PDK1 [2]) [%]	inhibition of PDK1 in tumors (P-PDK1 [2]) [%]	inhibition of P-AKT in tumors (AKT phosphorylation)	plateau of growth inhibition curve (MV4-11; MV4-11)	EC50 (U-2932) [nM]	EC50 (Jeko) [nM]	EC50 (A20) [nM]	plateau of growth inhibition curve (C1498; C1498)	EC50 (C1498; Mus musculus, C1498, 72 hr, read-out: MTS proliferation assay) [nM]	effect on PDK1 phosphorylation (P-PDK1 [4])	effect on RSK2 phosphorylation (P-RSK2)	P-AKT levels (P-AKT)
50 to 6100	0.4 to 1.4				CS(=O)(=O)N1CCN(Cc2cc3nc(-c4cccc5[nH]ncc45)nc(N4CCOCC4)c3s2)CC1 [GDC-0941, pictilisib]	25	45	no inhibition									
100 to 10700		1370	1300	906	NC1(c2ccc(-c3nc4ccn5c(=O)[nH]nc5c4cc3-c3ccccc3)cc2)CCC1 [MK-2206, reference compound]				do not reach a plateau below 20%	4880	980	138	do not reach a plateau below 20%	812	appears to enhance	appears to enhance	sensitive
